Experimental data: ChEMBL document CHEMBL1201862, “PubChem BioAssay data set” (2004)
Activity calls are given as the source filed them.

Tests used:
[1] = test system: Staphylococcus aureus; assay: Inhibitors of Bacterial Quorum Sensing Structure Activity Relationship (SAR) Analysis: Dose Response Assay. [Related pubchem assays: 700, 527 ]; assay type: functional, organism-based
[2] = molecular target: Protein-tyrosine kinase 2-beta (Homo sapiens, UniProt Q14289);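 further: potency of inhibitors of PYK2 kinase phosphorylation of poly-GT substrate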
[3] = molecular target: Oxytocin receptor (Homo sapiens, UniProt P30559); assay: Fluorescence-based cell-based high throughput dose response assay for agonists of the Oxytocin Receptor (OXTR). [Related pubchem assays: 2435 (Primary screen (OXTR agonists in singlicate)), 434991 (Counterscreen (V1R agonists in triplicate)), 2482 (Summary (OXTR agonists)), 434963 (Confirmation screen (OXTR agonists in triplicate))]; assay type: functional
[4] = molecular target: Vasopressin V1a receptor (Homo sapiens, UniProt P37288); assay: Counterscreen for Oxytocin Receptor (OXTR) agonists: Fluorescence-based cell-based high throughput dose response assay to identify agonists of the vasopressin 1 receptor (V1R). [Related pubchem assays: 2435 (Primary screen (OXTR agonists in singlicate)), 434991 (Counterscreen (V1R agonists in triplicate)), 2482 (Summary (OXTR agonists)) …; assay type: functional
[5] = molecular target: Dual specificity protein phosphatase 3 (Homo sapiens, UniProt P51452); assay: VHR1 inhibitor Ki determination, SAR follow-up, biochemical, colorimetric (AID 2004)
[6] = molecular target: Galanin receptor type 2 (Homo sapiens, UniProt O43603); assay: Dose Response cell-based high-throughput screening assay to identify antagonists of galanin receptor 2 (GALR2). [Related pubchem assays: 828, 866 ]; assay type: functional
[7] = molecular target: Protein Rev (Human immunodeficiency virus type 1 group M subtype B (isolate WMJ22)(HIV-1), UniProt P05866); assay: HIV-1 Rev-RRE RNA binding disruptors, dose response, biochemical, protein-RNA interaction (AID 842); parameters: species or system Human immunodeficiency virus 1
[8] = molecular target: Cytochrome P450 2D6 (Homo sapiens, UniProt P10635); assay: qHTS Assay for Inhibitors and Substrates of Cytochrome P450 2D6. [Related pubchem assays: 410 ]; assay type: ADME; conditions: read-out: Potency
[9] = molecular target: Cytochrome P450 2C9 (Homo sapiens, UniProt P11712); conditions: Potency
[10] = Luminescence Cell-Based Dose Response HTS to Identify Activators of Luciferase Translation or Activity in H4 […] Cells. [Related pubchem assays: 1829 (Project Summary), 1814 (Primary HTS)]; assay type: functional
[11] = test system: H4; assay: Luminescence Cell-Based Dose Response HTS to Identify Activators of 5'UTR Stem-Loop Driven Prion Protein mRNA Translation in H4 Neuroglioblastoma Cells. [Related pubchem assays: 1829 (Project Summary), 1814 (Primary HTS)]; assay type: functional; conditions: Homo sapiens
[12] = Luminescence-based cell-based high throughput dose response assay to identify activators of the DAF-12 from the parasite S. stercoralis (ssDAF-12).; assay type: functional
[13] = molecular target: T1, Alkaline phosphatase, tissue-nonspecific isozyme (Homo sapiens, UniProt P05186)
T1 sequence (P05186 whole entry): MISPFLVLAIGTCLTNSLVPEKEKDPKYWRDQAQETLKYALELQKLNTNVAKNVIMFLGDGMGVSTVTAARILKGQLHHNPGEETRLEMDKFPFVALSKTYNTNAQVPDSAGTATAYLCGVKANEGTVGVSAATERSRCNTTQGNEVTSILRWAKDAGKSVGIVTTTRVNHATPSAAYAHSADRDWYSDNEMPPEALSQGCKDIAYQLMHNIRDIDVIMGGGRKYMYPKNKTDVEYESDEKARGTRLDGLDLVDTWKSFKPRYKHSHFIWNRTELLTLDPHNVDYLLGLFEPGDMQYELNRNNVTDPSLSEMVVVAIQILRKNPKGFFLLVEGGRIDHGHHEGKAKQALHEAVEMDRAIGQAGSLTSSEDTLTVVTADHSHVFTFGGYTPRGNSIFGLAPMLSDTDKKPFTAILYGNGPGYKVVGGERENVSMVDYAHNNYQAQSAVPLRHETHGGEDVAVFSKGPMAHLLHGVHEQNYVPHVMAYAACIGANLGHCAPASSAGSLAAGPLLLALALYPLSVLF

[14] = Luminescence Cell-Based Dose Confirmation HTS to Identify Activators of 5'UTR Stem-Loop Driven Alpha-Synuclein mRNA Translation in H4 Neuroglioblastoma Cells. [Related pubchem assays: 1829 (Project Summary), 1814 (Primary HTS)]; assay type: functional
[15] = Luminescence Cell-Based Dose-Confimation HTS to Identify Inhibitors of 5'UTR Stem-Loop Driven Alpha-Synuclein mRNA Translation in H4 Neuroglioblastoma Cells. [Related pubchem assays: 1827 (Project Summary), 1813 (Primary HTS)]; assay type: functional
[16] = test system: HEK293; assay: Fluorescence-based counterscreen for potentiators or agonists of NPY-Y2: cell-based high-throughput dose response assay to identify inhibitors of cyclic nucleotide gated ion channel (CNGC) activity. In this assay, the parental HEK293 cell line transfected with a cyclic-nucleotide gated ion channel (CNGC)-based cAMP sensor is used to measure inhibition of isoproterenol-induced CNGC activity by test compound.; assay type: functional; conditions: Homo sapiens
[17] = molecular target: Neuropeptide Y receptor type 2 (Homo sapiens, UniProt P49146); assay: Fluorescence-based cell-based high-throughput dose response assay for agonists of NPY-Y2. [Related pubchem assays: 1703 (Screening assay (CNGC inhibitors).), 1359 (Screening assay (NPY-Y2 potentiators or agonists).), 1304 (Screening assay (NPY-Y1 potentiators or agonists).), 1710 (Screening assay (NPY-Y2 agonists).), 1791 (Summary AID.)]; assay type: functional
[18] = molecular target: Neuropeptide Y receptor type 1 (Homo sapiens, UniProt P25929); assay: Fluorescence-based counterscreen for agonists of NPY-Y2: cell-based high-throughput dose response assay for agonists of NPY-Y1.; assay type: functional
[19] = molecular target: G-protein coupled receptor 35 (Homo sapiens, UniProt Q9HC97); assay: GPR35 antagonists blocking zaprinast-driven arrestin recruitment, primary screen, imaging, U2OS, beta-arrestin-GFP, zaprinast agonist (AID 2058); assay type: functional;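 further: antagonist potency meaning inhibition of agonist-induced arrestin redistribution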
[20] = molecular target: Neuropeptides B/W receptor type 1 (Homo sapiens, UniProt P48145); assay: Fluorescence-based dose response cell-based high throughput screening assay to identify antagonists of the G-protein coupled receptor 7 (GPR7). [Related pubchem assays: 1952 (Screening assay (GPR7 antagonists).), 1880 (Summary AID.)]; assay type: functional
[21] = molecular target: Melanin-concentrating hormone receptor 1 (Homo sapiens, UniProt Q99705); assay: Fluorescence-based counterscreen for antagonists of the G-protein coupled receptor 7 (GPR7): cell-based high throughput dose response assay to identify antagonists of the melanin-concentrating hormone receptor 1 (MCHR1).; assay type: functional
[22] = molecular target: Induced myeloid leukemia cell differentiation protein Mcl-1 (Homo sapiens, UniProt Q07820); assay type: functional
[23] = HIV-1 Env-mediated cell fusion inhibitors, dose response, CCR5-tropic Env (AID 2279); assay type: functional
[24] = molecular target: T2, Streptokinase A (Streptococcus pyogenes serotype M1, UniProt P10520); assay: S. pyogenes streptokinase expression inhibitors, potency, dose response, plasminogen activation absorbance, OD405 (AID 1914); assay type: functional, Streptococcus pyogenes M1 GAS;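 further: secreted streptokinase activity via plasminogen activation per viability signal from cell pellet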
T2 sequence (P10520 whole entry): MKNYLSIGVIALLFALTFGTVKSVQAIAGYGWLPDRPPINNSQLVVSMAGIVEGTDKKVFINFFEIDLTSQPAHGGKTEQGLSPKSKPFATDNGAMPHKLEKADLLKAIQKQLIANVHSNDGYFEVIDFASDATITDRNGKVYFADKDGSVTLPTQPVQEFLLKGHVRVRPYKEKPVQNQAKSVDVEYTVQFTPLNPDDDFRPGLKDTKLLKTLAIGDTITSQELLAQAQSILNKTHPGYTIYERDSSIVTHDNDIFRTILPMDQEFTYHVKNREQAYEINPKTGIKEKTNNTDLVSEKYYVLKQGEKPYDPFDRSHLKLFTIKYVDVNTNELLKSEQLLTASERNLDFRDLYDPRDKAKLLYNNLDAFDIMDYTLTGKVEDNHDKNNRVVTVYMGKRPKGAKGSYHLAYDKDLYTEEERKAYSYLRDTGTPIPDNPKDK

[25] = test system: INS1; assay: beta cell apoptosis inhibitors, cytokine rescue, dose response, luminescence, retest (AID 449756); assay type: functional, cell-based; conditions: Rattus norvegicus;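 further: cell death triggered by IL-1 beta plus TNF-alpha plus IFN-gamma mixture; protective hits raise ATP signal compared with cytokine alone wells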
[26] = cells; assay type: functional, cell-based
[27] = test system: Streptococcus sp. 'group A'; assay: growth inhibition of control SK(-) GAS strain, dose response, counter-screen for streptokinase expression inhibitor project, luminescence, kanamycin, BacTiterGlo, confirmation (AID 1900); assay type: functional, organism-based
[28] = Vero E6 cell cytotoxicity, dose response, cytotoxicity control for non-replicating M. tuberculosis project, secondary assay (AID 492998); assay type: functional, VeroE6; conditions: Vero C1008
[29] = HepG2 cell cytotoxicity, dose response, cytotoxicity control for non-replicating M. tuberculosis project (AID 489018); assay type: functional; conditions: Mycobacterium tuberculosis
[30] = cells; assay type: functional
[31] = Luminescence-based counterscreen assay for KLF5 inhibitors: dose response cell-based high throughput screening assay to identify cytotoxic compounds using the IEC-6 intestinal epithelial cell line. [Related pubchem assays: 1700 (Primary screen.), 1834 (Confirmation screen.), 1858 (Summary AID.), 1905 (Counterscreen.)]; assay type: functional
[32] = cells; assay type: functional, cell-based; remark: listed apart in the source
[33] = test system: Streptococcus; assay: Group A Streptococcus viability loss, dose response, counter-screen for streptokinase expression inhibitor project, luminescence, BacTiterGlo (AID 1915); assay type: functional, organism-based;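 further: potency for reduction of bacterial viability or growth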
[34] = THP-1 cell cytotoxicity, dose response, cytotoxicity control for non-replicating M. tuberculosis project (AID 489025); assay type: functional
[35] = molecular target: Cyclin-dependent kinase 5/CDK5 activator 1 (Homo sapiens, UniProt Q00535); assay: CDK5/p35 kinase inhibitors, dose response, biochemical, cherry-picked samples, set 2 (AID 504545)
[36] = inhibition of ADP-Glo detection reagents, dose response, artefact control for CDK5 inhibitor project, biochemical, luminescence, cherry-picked samples, set 2 (AID 504546); assay type: functional
[37] = test system: HEK293; assay: cells; conditions: Homo sapiens
[38] = molecular target: Tumor necrosis factor (Homo sapiens, UniProt P01375); assay: TNFa-triggered NF-kB activation inhibitors, SAR follow-up, cell-based, revised (AID 2337); assay type: functional
[39] = molecular target: Nucleotide-binding oligomerization domain-containing protein 2 (Homo sapiens, UniProt Q9HC29); assay: PubChem AID 2334; assay type: functional
[40] = molecular target: Nucleotide-binding oligomerization domain-containing protein 1 (Homo sapiens, UniProt Q9Y239); assay: NOD1 signaling inhibitors, SAR follow-up, revised (AID 2333); assay type: functional
[41] = molecular target: T3, Estrogen receptor beta (Homo sapiens, UniProt Q92731); assay: ERβ–SRC-3 coactivator interaction inhibitors, confirmation, orthogonal assay, biochemical, ELISA, streptavidin-HRP readout (AID 1060)
[42] = molecular target: T3, Estrogen receptor beta
[43] = molecular target: Estrogen receptor (Homo sapiens, UniProt P03372);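 further: potency for inhibiting coactivator peptide recruitment to the receptor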
[44] = molecular target: NADPH oxidase 1 (Homo sapiens, UniProt Q9Y5S8); assay type: functional, cell-based;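 further: Cell-based assay with luminescence read-out, IC50 derived from inhibitor dose-response curves; intracellular ROS from endogenous NOX1 in intact HT29 colon cancer cells; potency of inhibitors that lower the ROS luminescence signal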

T3 sequence (Q92731 whole entry): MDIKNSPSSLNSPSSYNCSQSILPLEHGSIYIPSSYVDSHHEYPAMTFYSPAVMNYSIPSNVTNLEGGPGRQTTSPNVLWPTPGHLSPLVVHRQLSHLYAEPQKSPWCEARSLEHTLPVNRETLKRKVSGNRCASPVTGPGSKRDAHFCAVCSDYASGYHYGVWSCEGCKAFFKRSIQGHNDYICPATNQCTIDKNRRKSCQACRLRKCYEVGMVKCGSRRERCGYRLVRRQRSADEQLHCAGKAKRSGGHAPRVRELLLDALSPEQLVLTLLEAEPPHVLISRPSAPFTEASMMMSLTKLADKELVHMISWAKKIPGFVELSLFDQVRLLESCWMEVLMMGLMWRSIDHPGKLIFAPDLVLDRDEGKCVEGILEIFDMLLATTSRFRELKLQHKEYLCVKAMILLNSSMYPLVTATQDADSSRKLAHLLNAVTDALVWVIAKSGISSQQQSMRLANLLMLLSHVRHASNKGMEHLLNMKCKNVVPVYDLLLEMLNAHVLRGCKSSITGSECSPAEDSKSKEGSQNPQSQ
Galanin receptor type 2, sequence (O43603 whole entry): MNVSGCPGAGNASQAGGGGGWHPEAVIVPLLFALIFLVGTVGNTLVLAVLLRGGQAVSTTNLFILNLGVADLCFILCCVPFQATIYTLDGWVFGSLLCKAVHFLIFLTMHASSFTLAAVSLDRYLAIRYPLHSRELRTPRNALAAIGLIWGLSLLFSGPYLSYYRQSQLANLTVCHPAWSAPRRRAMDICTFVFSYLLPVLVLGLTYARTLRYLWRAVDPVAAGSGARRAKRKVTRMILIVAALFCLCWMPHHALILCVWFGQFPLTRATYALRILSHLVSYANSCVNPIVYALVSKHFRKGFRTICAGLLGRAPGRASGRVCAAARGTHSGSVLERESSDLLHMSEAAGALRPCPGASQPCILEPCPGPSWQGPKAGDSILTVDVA
G-protein coupled receptor 35, sequence (Q9HC97 whole entry): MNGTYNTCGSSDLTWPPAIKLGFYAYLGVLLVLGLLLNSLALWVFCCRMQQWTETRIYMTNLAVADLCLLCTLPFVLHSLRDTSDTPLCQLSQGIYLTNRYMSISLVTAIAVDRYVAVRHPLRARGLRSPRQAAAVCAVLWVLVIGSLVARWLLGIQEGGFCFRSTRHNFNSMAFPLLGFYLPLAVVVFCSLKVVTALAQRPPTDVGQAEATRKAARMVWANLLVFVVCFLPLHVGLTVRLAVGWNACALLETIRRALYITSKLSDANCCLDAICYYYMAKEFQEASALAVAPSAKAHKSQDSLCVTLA
Neuropeptide Y receptor type 2, sequence (P49146 whole entry): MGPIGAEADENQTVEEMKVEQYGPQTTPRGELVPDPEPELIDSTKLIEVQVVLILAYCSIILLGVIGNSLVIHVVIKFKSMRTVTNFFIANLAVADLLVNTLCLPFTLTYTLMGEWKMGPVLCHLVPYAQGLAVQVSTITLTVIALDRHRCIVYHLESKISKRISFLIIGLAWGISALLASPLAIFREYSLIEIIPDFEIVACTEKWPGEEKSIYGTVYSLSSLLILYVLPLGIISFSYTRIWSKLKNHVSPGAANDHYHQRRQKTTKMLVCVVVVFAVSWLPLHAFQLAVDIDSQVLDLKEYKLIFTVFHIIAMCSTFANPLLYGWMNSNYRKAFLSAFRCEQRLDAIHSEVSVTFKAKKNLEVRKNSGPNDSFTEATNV
Tumor necrosis factor, sequence (P01375 whole entry, the tested form may be a part): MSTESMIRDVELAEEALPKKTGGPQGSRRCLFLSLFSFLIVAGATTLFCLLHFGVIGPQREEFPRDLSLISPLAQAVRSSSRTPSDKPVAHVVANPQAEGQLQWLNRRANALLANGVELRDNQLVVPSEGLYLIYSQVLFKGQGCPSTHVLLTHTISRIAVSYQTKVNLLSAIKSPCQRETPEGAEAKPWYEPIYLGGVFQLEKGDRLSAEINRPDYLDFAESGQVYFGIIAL
Cytochrome P450 2C9, sequence (P11712 whole entry): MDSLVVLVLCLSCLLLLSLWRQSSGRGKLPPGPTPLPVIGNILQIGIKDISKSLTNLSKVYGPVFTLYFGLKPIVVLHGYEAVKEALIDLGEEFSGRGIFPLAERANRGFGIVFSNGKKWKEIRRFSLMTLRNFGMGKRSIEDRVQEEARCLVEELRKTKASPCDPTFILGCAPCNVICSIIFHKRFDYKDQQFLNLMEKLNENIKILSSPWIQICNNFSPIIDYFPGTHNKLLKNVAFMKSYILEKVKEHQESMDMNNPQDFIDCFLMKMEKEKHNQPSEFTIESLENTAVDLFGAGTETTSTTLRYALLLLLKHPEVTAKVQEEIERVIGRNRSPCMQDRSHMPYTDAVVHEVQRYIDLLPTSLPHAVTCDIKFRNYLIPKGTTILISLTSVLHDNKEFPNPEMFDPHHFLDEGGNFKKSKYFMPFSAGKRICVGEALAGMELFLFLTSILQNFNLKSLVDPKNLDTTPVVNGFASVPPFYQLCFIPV
Melanin-concentrating hormone receptor 1, sequence (Q99705 whole entry): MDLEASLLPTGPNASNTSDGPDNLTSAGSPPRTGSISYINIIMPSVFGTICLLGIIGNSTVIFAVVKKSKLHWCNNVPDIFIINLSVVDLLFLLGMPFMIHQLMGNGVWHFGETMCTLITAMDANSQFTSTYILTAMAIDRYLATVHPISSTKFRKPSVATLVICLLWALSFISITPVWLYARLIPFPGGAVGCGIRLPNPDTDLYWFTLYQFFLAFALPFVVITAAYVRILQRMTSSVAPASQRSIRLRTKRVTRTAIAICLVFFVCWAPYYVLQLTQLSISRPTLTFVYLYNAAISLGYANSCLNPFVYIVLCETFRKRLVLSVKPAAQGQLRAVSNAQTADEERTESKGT
Cyclin-dependent kinase 5/CDK5 activator 1, sequence (Q00535 whole entry): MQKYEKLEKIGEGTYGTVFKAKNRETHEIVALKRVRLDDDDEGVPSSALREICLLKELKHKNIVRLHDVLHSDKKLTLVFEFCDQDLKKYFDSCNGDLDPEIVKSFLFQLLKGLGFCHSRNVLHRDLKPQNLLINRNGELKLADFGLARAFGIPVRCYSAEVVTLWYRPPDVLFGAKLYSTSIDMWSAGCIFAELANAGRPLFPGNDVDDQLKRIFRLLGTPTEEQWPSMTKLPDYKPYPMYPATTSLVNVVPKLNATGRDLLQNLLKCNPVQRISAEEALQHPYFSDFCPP
Cyclin-dependent kinase 5/CDK5 activator 1, sequence (Q15078 whole entry, further chain): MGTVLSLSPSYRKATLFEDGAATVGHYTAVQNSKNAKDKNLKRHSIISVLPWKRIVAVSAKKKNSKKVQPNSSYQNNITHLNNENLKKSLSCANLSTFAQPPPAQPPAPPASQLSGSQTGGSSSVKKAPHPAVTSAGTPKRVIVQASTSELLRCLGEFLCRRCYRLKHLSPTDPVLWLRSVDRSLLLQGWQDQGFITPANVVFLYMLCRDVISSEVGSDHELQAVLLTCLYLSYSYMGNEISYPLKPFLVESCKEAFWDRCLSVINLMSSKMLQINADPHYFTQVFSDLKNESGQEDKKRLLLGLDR
Neuropeptide Y receptor type 1, sequence (P25929 whole entry): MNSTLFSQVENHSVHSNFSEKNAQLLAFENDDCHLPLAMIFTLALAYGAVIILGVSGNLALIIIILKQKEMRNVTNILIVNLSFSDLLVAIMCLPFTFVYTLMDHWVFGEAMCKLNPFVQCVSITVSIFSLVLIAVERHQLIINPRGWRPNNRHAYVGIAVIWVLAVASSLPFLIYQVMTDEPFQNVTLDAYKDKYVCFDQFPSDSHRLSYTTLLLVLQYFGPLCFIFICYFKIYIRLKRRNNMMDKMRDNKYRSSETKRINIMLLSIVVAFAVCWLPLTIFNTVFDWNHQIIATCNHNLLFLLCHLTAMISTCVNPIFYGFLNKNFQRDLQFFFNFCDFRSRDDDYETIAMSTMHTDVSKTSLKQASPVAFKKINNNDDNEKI
Cytochrome P450 2D6, sequence (P10635 whole entry): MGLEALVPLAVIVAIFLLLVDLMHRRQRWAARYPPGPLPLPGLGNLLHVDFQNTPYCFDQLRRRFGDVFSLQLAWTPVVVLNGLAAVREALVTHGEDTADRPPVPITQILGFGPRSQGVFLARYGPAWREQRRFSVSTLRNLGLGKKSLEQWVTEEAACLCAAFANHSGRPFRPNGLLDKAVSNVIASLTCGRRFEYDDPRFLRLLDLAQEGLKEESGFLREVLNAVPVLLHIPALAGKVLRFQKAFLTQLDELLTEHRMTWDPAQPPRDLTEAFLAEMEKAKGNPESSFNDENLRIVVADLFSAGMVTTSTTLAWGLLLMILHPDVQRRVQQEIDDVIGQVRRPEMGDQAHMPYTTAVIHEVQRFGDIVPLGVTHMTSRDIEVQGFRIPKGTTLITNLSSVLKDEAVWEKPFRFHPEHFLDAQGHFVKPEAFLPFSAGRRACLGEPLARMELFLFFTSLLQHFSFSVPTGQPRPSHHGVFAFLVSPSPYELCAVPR
Vasopressin V1a receptor, sequence (P37288 whole entry): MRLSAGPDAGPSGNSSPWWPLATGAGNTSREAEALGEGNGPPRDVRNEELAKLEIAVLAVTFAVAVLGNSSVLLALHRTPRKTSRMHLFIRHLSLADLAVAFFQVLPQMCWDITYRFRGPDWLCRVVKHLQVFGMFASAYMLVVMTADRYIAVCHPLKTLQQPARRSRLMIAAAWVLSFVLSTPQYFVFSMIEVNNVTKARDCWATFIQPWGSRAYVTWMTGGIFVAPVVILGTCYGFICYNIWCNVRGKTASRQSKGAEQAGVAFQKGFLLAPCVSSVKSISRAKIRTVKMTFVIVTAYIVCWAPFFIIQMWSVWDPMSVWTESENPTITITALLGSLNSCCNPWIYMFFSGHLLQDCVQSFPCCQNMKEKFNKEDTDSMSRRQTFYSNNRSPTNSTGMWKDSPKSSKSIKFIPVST
Dual specificity protein phosphatase 3, sequence (P51452 whole entry): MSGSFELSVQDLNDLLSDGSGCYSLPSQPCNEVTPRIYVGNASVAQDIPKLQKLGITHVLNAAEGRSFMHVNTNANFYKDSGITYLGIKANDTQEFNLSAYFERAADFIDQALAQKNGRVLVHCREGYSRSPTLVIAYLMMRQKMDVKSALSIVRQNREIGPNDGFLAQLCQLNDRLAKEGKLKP
Protein Rev, sequence (P05866 whole entry): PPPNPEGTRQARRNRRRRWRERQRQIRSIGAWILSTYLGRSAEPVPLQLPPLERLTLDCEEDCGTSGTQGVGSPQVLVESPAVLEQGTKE

CC1CCCN(C(C(=O)Nc2ccc3c(c2)OCO3)c2ccccc2)C1 (centres undefined)
IC50 [1]: 0.162 µM (active)

COc1ccc([N+](=O)[O-])cc1COc1cc(C)cc2oc(=O)cc(-c3ccccc3)c12
IC50 [2]: > 69.5 µM (not active)

Oc1ccc(Cl)cc1CNCc1ccc(F)cc1
EC50 [3]: 15.5 µM (not active) | EC50 [4]: 11 µM (not active)

COc1cccc2c1NC(c1cccc3ccccc13)C1CC=CC21 (centres undefined)
Ki [5]: 141 µM (inactive)

CCOC(=O)COc1ccc(S(=O)(=O)NCc2ccncc2)cc1
IC50 [6]: > 42 µM (not active)

CC(NCc1ccc(N(C)C)cc1)C1CC2CCC1C2 (centres undefined)
IC50 [7]: > 79.4 µM (not active)

CC(=O)OCC1OC(c2ccc3c(c2)OCO3)C=CC1OC(C)=O (centres undefined)
AC50 [8]: 7.94 µM (inconclusive) | AC50 [9]: 5.01 µM (inconclusive)

Cc1cc(C)c(C#N)c(SCc2nc3ccccc3[nH]2)n1
EC50 [10]: 14.9 µM (active) | EC50 [11]: 44.6 µM (active) | IC50 [12]: > 67.5 µM (inactive) | EC50 [13]: > 100 µM (not active) | EC50 [14]: 0.262 µM (active)

Nc1nc(CSc2nnnn2-c2ccccc2)nc(Nc2ccccc2)n1
EC50 [15]: 15.5 µM (active)

c1ccc(CSc2nc3c[nH]cnc-3n2)cc1
EC50 [16]: > 35.4 µM (not active) | EC50 [17]: > 35.4 µM (not active) | EC50 [18]: > 35.4 µM (not active)

COc1ccc2nc3oc(C(=O)N4CCN(c5cccc(Cl)c5)CC4)cc3cc2c1
IC50 [19]: 2.14 µM (active)

CCOC(=O)N1CCN(S(=O)(=O)c2ccc(C(=O)N(CCCN(C)C)c3nc4ccc(CC)cc4s3)cc2)CC1
IC50 [20]: 14.2 µM (not active) | IC50 [21]: 18.3 µM (not active)

COc1cc(/C=C2\SC(=O)N(Cc3ccc(F)cc3)C2=O)cc([N+](=O)[O-])c1O
IC50 [22]: 7.65 µM (active) | IC50 [23]: 45.6 µM (active)

CCOc1cccc(/C=N/NC(=O)c2ccc3c(c2)OCCO3)c1O
EC50 [24]: 1.11 µM (active) | AC50 [25]: 3.01 µM (active) | EC50 [26]: > 350 µM (not active) | EC50 [27]: 1.49 µM (active) | CC50 [28]: 6.58 µM (active) | CC50 [29]: 4.3 µM (active) | IC50 [30]: > 50 µM (active) | IC50 [31]: 12.5 µM (not active) | EC50 [32]: 50.3 µM (active) | EC50 [33]: 2.77 µM (active) | CC50 [34]: 3.18 µM (active)

Cc1occc1C(=O)N/N=C/c1ccc(N(C)C)cc1
AC50 [35]: 19.5 µM (active) | AC50 [36]: 26.4 µM (active)

O=C(Nc1sc2c(c1C(=O)O)CCCC2)c1cccs1
IC50 [37]: > 20 µM (inactive) | IC50 [38]: > 20 µM (inactive) | IC50 [39]: > 20 µM (inactive) | IC50 [40]: > 20 µM (inactive)

Cc1ccccc1-n1c(SC/C(O)=C(\C#N)c2nc3ccccc3[nH]2)nnc1-c1ccncc1
IC50 [41]: 0.371 µM (not active) | IC50 [42]: > 50 µM (not active)

CCCCOC(=O)c1cc(-c2ccc(/C=N/n3cnnc3)o2)ccc1Cl
IC50 [43]: > 50 µM (not active)

O=C(Nc1ccccc1)Nc1nc(-c2ccccc2)cs1
IC50 [44]: > 17 µM (not active)
